Like-named read-outs stand apart in the source and are kept apart here.

In assay [1] the test system is whole blood (pERK). In words: pERK Whole Blood assay (Table A; no whole-blood pERK method described). The format is cell-based. To be noted: normalized.
Assay [2] deals with human DGKζ (Homo sapiens (Human), UniProt Q13574). Put plainly: DGKζ LIPGLO assay (extruded liposome substrate, ADP-Glo luminescence). It counts as biochemical. To be noted: liposome assay; read-out: DGK zeta LIPGLO IC50. In general terms: ADP-Glo turns the ADP formed in a reaction into a luminescent signal.
Assay [3] addresses T1, human DGKα (Homo sapiens (Human), UniProt P23743). In words: DGKα ADPGLO assay (detergent/lipid micelle substrate). The format is biochemical. As to conditions: truncated DGK alpha; read-out: DGK alpha ADPGLO (Truncated) IC50. The method, then:
DGK Alpha ADPGLO (Truncated) IC50 (uM)
The detergent/lipid micelle was prepared by combining 15 g phosphatidylserine (Avanti 840035P) and 1 g diacylglycerol (8008110) and dissolving into 150 mL chloroform in a 2 L round bottom flask. Chloroform was removed under high vacuum by rotary evaporation. […] The lipid/detergent solution was split into 5 mL aliquots and stored at −80° C.

Assay [4] addresses T1, human DGKα. In words: DGKα LIPGLO assay (extruded liposome substrate, ADP-Glo luminescence). It counts as biochemical. To be noted: liposome assay; read-out: DGK alpha LIPGLO IC50.
For assay [5], the system named is human venous whole blood (IFN-γ). In words: Human whole blood IFN-γ assay. It counts as cell-based. As to conditions: whole blood, normalized to 3 μM reference compound as 100% activation, read-out: IFN-γ Whole Blood Normalized EC50. The protocol:
Human venous whole blood (22.5 μL per well), obtained from healthy donors, was pre-treated with compounds for one hour at 37° C. in a humidified 95% air/5% CO2 incubator. The blood was stimulated with 2.5 μL anti-human CD3 and anti-CD28 mAb at a final concentration of 1 μg/mL each for 24 hours at 37° C. IFN-γ in the supernatants was measured using AlphLISA kit (Cat #AL217).

Chain of human DGKζ (Q13574 other isoform, or with tags, fused parts or gaps): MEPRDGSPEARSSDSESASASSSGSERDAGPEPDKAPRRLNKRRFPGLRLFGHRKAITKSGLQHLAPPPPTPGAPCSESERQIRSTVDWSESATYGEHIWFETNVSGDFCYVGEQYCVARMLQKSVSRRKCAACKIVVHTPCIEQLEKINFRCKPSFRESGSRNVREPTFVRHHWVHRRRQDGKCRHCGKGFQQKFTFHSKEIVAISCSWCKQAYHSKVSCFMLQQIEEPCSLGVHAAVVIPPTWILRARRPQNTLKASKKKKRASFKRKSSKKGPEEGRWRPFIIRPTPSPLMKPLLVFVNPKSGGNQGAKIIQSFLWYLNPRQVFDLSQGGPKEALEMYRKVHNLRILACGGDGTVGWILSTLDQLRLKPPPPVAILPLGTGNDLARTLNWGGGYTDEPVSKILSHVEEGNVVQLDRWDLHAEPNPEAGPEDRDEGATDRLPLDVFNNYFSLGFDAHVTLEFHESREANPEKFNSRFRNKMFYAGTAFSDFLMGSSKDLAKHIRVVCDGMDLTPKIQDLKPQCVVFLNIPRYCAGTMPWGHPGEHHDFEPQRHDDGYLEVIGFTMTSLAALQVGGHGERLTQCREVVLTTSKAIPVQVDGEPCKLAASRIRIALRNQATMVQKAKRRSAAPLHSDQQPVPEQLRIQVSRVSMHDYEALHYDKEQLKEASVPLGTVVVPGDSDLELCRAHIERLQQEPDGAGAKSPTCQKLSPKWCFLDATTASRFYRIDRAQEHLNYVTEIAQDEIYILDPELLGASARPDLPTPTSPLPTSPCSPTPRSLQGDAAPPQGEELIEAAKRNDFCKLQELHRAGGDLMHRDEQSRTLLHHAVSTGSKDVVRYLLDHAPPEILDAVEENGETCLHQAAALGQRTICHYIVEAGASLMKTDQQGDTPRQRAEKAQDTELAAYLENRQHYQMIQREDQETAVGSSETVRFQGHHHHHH
T1 sequence (P23743 whole entry, looked up, the tested form may be a part): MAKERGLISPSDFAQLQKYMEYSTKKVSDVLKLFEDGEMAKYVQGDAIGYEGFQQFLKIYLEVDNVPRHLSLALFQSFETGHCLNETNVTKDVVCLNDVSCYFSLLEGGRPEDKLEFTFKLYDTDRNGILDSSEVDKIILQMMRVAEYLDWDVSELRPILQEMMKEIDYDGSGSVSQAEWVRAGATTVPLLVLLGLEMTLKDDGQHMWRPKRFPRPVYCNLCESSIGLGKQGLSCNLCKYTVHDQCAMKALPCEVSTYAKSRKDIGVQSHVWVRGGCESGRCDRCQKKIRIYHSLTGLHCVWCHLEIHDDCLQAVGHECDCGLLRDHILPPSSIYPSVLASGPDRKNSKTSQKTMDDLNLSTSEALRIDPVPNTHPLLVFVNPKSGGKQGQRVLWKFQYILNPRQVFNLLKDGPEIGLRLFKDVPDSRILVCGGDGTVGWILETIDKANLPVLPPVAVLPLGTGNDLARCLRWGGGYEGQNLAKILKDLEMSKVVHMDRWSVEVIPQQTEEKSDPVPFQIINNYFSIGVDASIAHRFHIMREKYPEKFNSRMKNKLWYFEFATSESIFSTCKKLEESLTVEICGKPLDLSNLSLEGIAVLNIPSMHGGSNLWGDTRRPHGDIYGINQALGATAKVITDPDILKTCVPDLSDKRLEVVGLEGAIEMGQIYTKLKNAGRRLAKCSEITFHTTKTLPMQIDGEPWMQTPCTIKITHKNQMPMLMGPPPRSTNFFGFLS

As usually defined, the IC50 is the concentration at which inhibition is half-maximal. Take `CC[C@H]1CN(C(C)c2ccc(CN3CC4(COC4)C3)cc2)[C@H](CC)CN1c1nc(=O)n(C)c2ccc(C#N)nc12` (stereo partly drawn) [Example 280, 4-((2S,5R)-4-(1-(4-((2-oxa-6-azaspiro[3.3]heptan-6-yl)methyl)phenyl)ethyl)-2,5-diethylpiperazin-1-yl)-1-methyl-2-oxo-1,2-dihydropyrido[3,2-d]pyrimidine-6-carbonitrile]: the 50% inhibitory concentration (IC50) stood at 150 nM in assay [1], 125000 nM in assay [2] and 42700 nM in assay [3].
On to `CCC(c1ccc(C(C)(C)C#N)cc1)N1C[C@H](CC)N(c2nc(=O)n(C)c3ccc(C#N)nc23)C[C@H]1CC` (stereo partly drawn) [Example 251, 4-((2S,5R)-4-(1-(4-(2-cyanopropan-2-yl)phenyl)propyl)-2,5-diethylpiperazin-1-yl)-1-methyl-2-oxo-1,2-dihydropyrido[3,2-d]pyrimidine-6-carbonitrile], for which the IC50 in assay [1] is 1580 nM; in assay [2] it was 18 nM; in assay [3], 34 nM.
As a reminder, the EC50 is the concentration that produces a half-maximal response. `CCC(c1ccc(OC(F)(F)F)cc1F)N1C[C@H](C)N(c2nc(=O)n(C)c3ccc(C#N)nc23)C[C@H]1CC` (single isomer, unassigned) [Example 86]: the IC50 is 2940 nM in assay [4], 2370 nM in assay [2] and 420 nM in assay [3]. The 50% effective concentration (EC50) in assay [5] turned out to be 1540 nM.
In turn, `CC[C@@H]1CN(c2nc(=O)n(C)c3ccc(C#N)nc23)[C@@H](C)CN1C(c1ccc(F)cc1)c1ccc(C(F)(F)F)cn1` (single isomer, unassigned) [Example 47] returned a 50% inhibitory concentration (IC50) in assay [1] of 20 nM. Further, the EC50 in assay [5] (Homo sapiens) amounted to 32 nM.
As to `CCC(c1ccc(OC2CC2)cc1)N1C[C@H](CC)N(c2nc(=O)n(C)c3ccc(C#N)nc23)C[C@H]1CC` (stereo partly drawn) [Example 256, 4-((2S,5R)-4-(1-(4-cyclopropoxyphenyl)propyl)-2,5-diethylpiperazin-1-yl)-1-methyl-2-oxo-1,2-dihydropyrido[3,2-d]pyrimidine-6-carbonitrile], the half-maximal inhibitory concentration (IC50) worked out at 290 nM in assay [1], 2940 nM in assay [2] and 1510 nM in assay [3].
The like results for `CC[C@H]1CN(C(C)c2ccc(CN3CC4(COC4)C3)cc2)[C@H](CC)CN1c1nc(=O)n(C)c2ccc(C#N)nc12` (stereo partly drawn) [Example 279, 4-((2S,5R)-4-(1-(4-((2-oxa-6-azaspiro[3.3]heptan-6-yl)methyl)phenyl)ethyl)-2,5-diethylpiperazin-1-yl)-1-methyl-2-oxo-1,2-dihydropyrido[3,2-d]pyrimidine-6-carbonitrile] were, in that order, 2920 nM, 62400 nM and 17000 nM.
As to `CC[C@H]1CN(C(c2ccc(OC)cc2)C(C)C)[C@H](CC)CN1c1nc(=O)n(C)c2ccc(C#N)nc12` (stereo partly drawn) [Example 249, 4-((2S,5R)-2,5-diethyl-4-(1-(4-methoxyphenyl)-2-methylpropyl)piperazin-1-yl)-1-methyl-2-oxo-1,2-dihydropyrido[3,2-d]pyrimidine-6-carbonitrile], the half-inhibitory concentration (IC50) came to 420 nM in assay [1] and 40 nM in assay [2].
In the case of `CC[C@@H]1CN(c2nc(=O)n(C)c3ccc(C#N)nc23)[C@@H](C)CN1C(C)c1ccc(C(F)(F)F)cc1` (single isomer, unassigned) [Example 8], the results for the half-inhibitory concentration (IC50) in assay [1] and in assay [3] were 180 nM and 140 nM, respectively.
Take `CC[C@H]1CN(C(C)c2ccc(CN3C[C@@H](C)O[C@@H](C)C3)cc2)[C@H](CC)CN1c1nc(=O)n(C)c2ccc(C#N)nc12` (stereo partly drawn) [Example 292, 4-((2S,5R)-4-(1-(4-(((2S,6R)-2,6-dimethylmorpholino)methyl)phenyl)ethyl)-2,5-diethylpiperazin-1-yl)-1-methyl-2-oxo-1,2-dihydropyrido[3,2-d]pyrimidine-6-carbonitrile]: the IC50 in assay [1] came out at 1100 nM; in assay [2], 1010 nM; in assay [3], 210 nM.
The molecule `CC[C@@H]1CN(c2nc(=O)n(C)c3ccc(C#N)nc23)[C@@H](C)CN1C(c1ccc(Cl)cc1)c1ccccn1` (single isomer, unassigned) [Example 95] yielded an IC50 in assay [1] of 10500 nM. In addition, the EC50 in assay [5] was 370 nM.
On to `CC[C@H]1CN(C(C)c2ccc(CN3C[C@@H](C)O[C@@H](C)C3)cc2)[C@H](CC)CN1c1nc(=O)n(C)c2ccc(C#N)nc12` (stereo partly drawn) [Example 291, 4-((2S,5R)-4-(1-(4-(((2S,6R)-2,6-dimethylmorpholino)methyl)phenyl)ethyl)-2,5-diethylpiperazin-1-yl)-1-methyl-2-oxo-1,2-dihydropyrido[3,2-d]pyrimidine-6-carbonitrile], for which the IC50 was determined as 390 nM in assay [1], 430 nM in assay [2] and 110 nM in assay [3].
Consider `CC[C@H]1CN(C(C)c2cccc(OC(F)(F)F)n2)[C@H](CC)CN1c1nc(=O)n(C)c2ccc(C#N)nc12` (stereo partly drawn) [Example 246, 4-((2S,5R)-2,5-diethyl-4-(1-(6-(trifluoromethoxy)pyridin-2-yl)ethyl)piperazin-1-yl)-1-methyl-2-oxo-1,2-dihydropyrido[3,2-d]pyrimidine-6-carbonitrile], for which the results for the IC50 in assay [1], in assay [2] and in assay [3] were 440 nM, 5850 nM and 4670 nM, respectively.
On to `CCC(c1ccc(OC(C)C)cc1)N1C[C@H](CC)N(c2nc(=O)n(C)c3ccc(C#N)nc23)C[C@H]1CC` (stereo partly drawn) [Example 234, 4-((2S,5R)-2,5-diethyl-4-(1-(4-isopropoxyphenyl)propyl)piperazin-1-yl)-1-methyl-2-oxo-1,2-dihydropyrido[3,2-d] pyrimidine-6-carbonitrile], for which the concentration for half-maximal inhibition (IC50) in assay [1] was 80 nM; in assay [2], 59 nM; in assay [3], 36 nM.
As to `CC[C@H]1CN(C(c2ccc(OC)cc2)C(C)C)[C@H](CC)CN1c1nc(=O)n(C)c2ccc(C#N)nc12` (stereo partly drawn) [Example 250, 4-((2S,5R)-2,5-diethyl-4-(1-(4-methoxyphenyl)-2-methylpropyl)piperazin-1-yl)-1-methyl-2-oxo-1,2-dihydropyrido[3,2-d]pyrimidine-6-carbonitrile], the IC50 in assay [1] was found to be 1800 nM; in assay [2] it was 1150 nM; in assay [3] it was 330 nM.
The like results for `CCC(c1ccc(OC2CC2)cc1)N1C[C@H](CC)N(c2nc(=O)n(C)c3ccc(C#N)nc23)C[C@H]1CC` (stereo partly drawn) [Example 255, 4-((2S,5R)-4-(1-(4-cyclopropoxyphenyl)propyl)-2,5-diethylpiperazin-1-yl)-1-methyl-2-oxo-1,2-dihydropyrido[3,2-d]pyrimidine-6-carbonitrile] were, in that order, 540 nM, 120 nM and 58 nM.
For the molecule `CCC(c1ccc(C(F)(F)F)cc1)N1C[C@H](CC)N(c2nc(=O)n(C)c3ccc(C#N)nc23)C[C@H]1CC` (single isomer, unassigned) [Example 6], the values for the IC50 in assay [1] and in assay [3] were 6980 nM and 58 nM, respectively.
For `CC[C@H]1CN(C(C)c2ccc(C(F)(F)F)cc2N2CCOCC2)[C@H](CC)CN1c1nc(=O)n(C)c2ccc(C#N)nc12` (stereo partly drawn) [Example 194, 4-((2S,5R)-2,5-diethyl-4-(1-(2-morpholino-4-(trifluoromethyl)phenyl)ethyl)piperazin-1-yl)-1-methyl-2-oxo-1,2-dihydropyrido[3,2-d]pyrimidine-6-carbonitrile], the IC50 stood at 270 nM in assay [1] and 5250 nM in assay [2].
In the case of `C[C@@H]1CN(c2nc(=O)n(C)c3ccc(C#N)nc23)[C@@H](C)CN1C(c1ccc(F)cc1)c1ccc(C(F)(F)F)cn1` (single isomer, unassigned) [Example 127], 240 nM corresponded to half-maximal inhibition in assay [1] (IC50). In addition, the EC50 in assay [5] (Homo sapiens) stood at 410 nM.
In the case of `CC[C@H]1CN(C(c2ccc(F)cc2)c2nc(C3CC3)no2)[C@H](CC)CN1c1nc(=O)n(C)c2ccc(C#N)nc12` (single isomer, unassigned) [Example 110], in assay [1], the IC50 turned out to be 15 nM. Moreover, in assay [5], the EC50 amounted to 9 nM.
Take `CCC(c1ccc(OC(F)(F)F)cc1)N1C[C@H](CC)N(c2nc(=O)n(C)c3ccc(C#N)nc23)C[C@H]1CC` (single isomer, unassigned) [Example 37]: the values for the IC50 in assay [4], in assay [2] and in assay [3] were 69 nM, 470 nM and 120 nM, respectively. In addition, the concentration for a half-maximal effect (EC50) in assay [5] was 20000 nM.
Molecule `CC[C@H]1CN(C(c2ccc(OC(C)C)cc2)C(C)C)[C@H](CC)CN1c1nc(=O)n(C)c2ccc(C#N)nc12` (stereo partly drawn) [Example 262, 4-((2S,5R)-2,5-diethyl-4-(1-(4-isopropoxyphenyl)-2-methylpropyl)piperazin-1-yl)-1-methyl-2-oxo-1,2-dihydropyrido[3,2-d]pyrimidine-6-carbonitrile] gave an IC50 in assay [1] of 4150 nM.
For `CC[C@H]1CN(C(c2ccc(F)cc2)c2nc(C3CC3)no2)[C@H](CC)CN1c1nc(=O)n(C)c2ccc(C#N)nc12` (single isomer, unassigned) [Example 111], half-maximal inhibition in assay [1] (IC50) was put at 90 nM. In addition, in assay [5], the concentration giving a half-maximal response (EC50) was 21 nM.
`CC[C@@H]1CN(c2nc(=O)n(C)c3ccc(C#N)nc23)[C@@H](C)CN1C(c1ccc(F)cc1)c1ccc(C(F)(F)F)cn1` (stereo partly drawn) [Example 46, 4-((2S,5R)-5-Ethyl-4((4-fluorophenyl)(5-(trifluoromethyl)pyridin-2-yl)methyl)-2-methylpiperazin-1-yl)-1-methyl-2-oxo-1,2-dihydropyrido[3,2-d]pyrimidine-6-carbonitrile]: in assay [1], the IC50 amounted to 43 nM. Moreover, the half-maximal effective concentration (EC50) in assay [5] (Homo sapiens) was 73 nM.

For the origin of these results see patent US11584747B2, “Substituted pyridopyrimidinonyl compounds useful as T cell activators” (BRISTOL-MYERS SQUIBB COMPANY, priority 2019, dated 2023).
